{"source": "patent US10655163B2", "about": "“Methods, kits, and systems for multiplexed detection of target molecules and uses thereof” (THE GENERAL HOSPITAL CORPORATION, priority 2013, dated 2020)", "key": {"[1]": {"system": "four human cancer cell lines", "experiment": "Proteomic profiling of olaparib and cisplatin treatments", "format": "cell-based", "conditions": "FIGS. 15C-15D", "experimental": "Proteomic profiling of olaparib and cisplatin treatments was performed for four human cancer cell lines, showing varying drug sensitivities as measured by viability assays (FIGS. 14A-14B and FIG. 15A).\nDrug treatments of cell lines. To test the effect of drug treatment on protein expression levels, the cell lines were treated with a number of different chemotherapeutic or molecularly targeted drugs. […] DNA-damaging agents olaparib and cisplatin were applied to cells for 3 days. Changes in protein expression levels were compared to medium controls under identical conditions but without drug treatment.\nData analysis: calculating proteomic expression profiles. Protein expression profiles were extracted from raw data as follows. First, raw DNA counts were normalized via the mean of the internal NanoString positive controls, which account for hybridization efficiency. […]\nCorrelation between single-cell analysis and bulk measurement was calculated in GraphPad Prism. Spearman r values were calculated without assuming a normal, consistent distribution. Two-sided P values were calculated, where significant markers were identified by comparing two groups (for example, treated versus untreated) in Prism and performing pairwise t tests with an FDR of 0.2 for multiple test correction error. […] Class separability was measured by the Bhattacharya distance."}, "[2]": {"system": "HT1080 fibrosarcoma cell lines", "experiment": "Taxol dose response screen in HT1080 cells, ABCD protein marker profiling", "format": "cell-based, human", "conditions": "different doses of taxol", "text": "Having established feasibility of inter- and intrapatient analyses in clinical samples, it was next sought to explore the feasibility of monitoring cancer treatment over time. To this end, it was first sought to determine if known pathway responses to different drug treatments could be discriminated. […]. […] Notable examples include pS6RP for targeted treatments, and pH2A.X, pATM/ATR (phospho-ataxia telangiectasia mutated/ATM- and Rad3-related) substrate, and cleaved PARP for DNA-damaging agents. Unexpected results, such as epigenetic histone modifications after treatment with a phosphatidylinositol 3-kinase inhibitor (PI3Ki) was also found (FIG. 15E). For additional in vitro validation of treatment, HT1080 fibrosarcoma cell lines were treated with four different doses of taxol.\nTo evaluate the assay's ability to measure even small marker changes, HT1080 human fibrosarcoma cells were treated with taxol at […] different doses. Marker changes at high doses were compared to marker changes quantified by an independent immunofluorescence screen (FIG. 16A). […] These in vitro studies established that the marker panel could indeed measure pathway changes in response to varying drug mechanisms; furthermore, these changes could be detected in a sensitive, dose-dependent manner.\nImmunofluorescence. […]"}}, "note": "“Also recorded” adds a separate entry of the source.", "data": [{"smiles": "N.N.[Cl][Pt][Cl]", "note": "[cisplatin]", "values": [{"measurement": "changes in DNA damage and apoptosis markers", "setting": "[1]", "value": "degradation of Bim and up-regulation of pERK"}]}, {"smiles": "CC(=O)O[C@H]1C(=O)[C@@]2(C)[C@H]([C@H](OC(=O)c3ccccc3)[C@]3(O)C[C@H](OC(=O)[C@H](O)[C@@H](NC(=O)c4ccccc4)c4ccccc4)C(C)=C1C3(C)C)[C@]1(OC(C)=O)CO[C@@H]1C[C@@H]2O", "note": "[taxol, paclitaxel]", "values": [{"measurement": "protein marker changes in response to taxol treatment", "setting": "[2]", "value": "dose-response changes; also recorded: dose-response curves"}]}]}
